From patent US4992449A, “7-(substituted)cycloalkylamino-1 -(substituted)-6-fluoro-1,4-dihydro-4-oxo-3-quinolinecarboxylic acids” (American Cyanamid Company, priority 1990, dated 1991)
Values after ≈ are worked out from the molar mass of the structure shown.

Experiments:
Experiment in all cases: In vitro antibacterial MIC, agar plate dilution
Assay type in all cases: cell-based
[1] = tested on: Citrobacter diversus K 82-24; conditions: Citrobacter koseri, K8224, Mueller-Hinton agar, 10^4 CFU, 18 hours, 35° C.
Experimental: (§1) The in vitro antimicrobial spectrum of the compounds of this invention were determined by the agar plate dilution method with Mueller-Hinton agar and an inoculum of each test organism of approximately 10^4 colony forming units delivered by the Steers replicating device. The minimal inhibitory concentration (MIC) in mcg/ml is defined as the lowest concentration of test compound that inhibited visible growth after 18 hours incubation at 35° C. Results are given in Table I, with the test compounds identified by the number of their hereinafter described examples

[2] = tested on: Enterobacter cloacae K 84-10; conditions: K8410, Mueller-Hinton agar, 10^4 CFU, 18 hours, 35° C.
Experimental: as §1

[3] = tested on: Enterobacter cloacae MOR 84-30; conditions: MOR8430, Mueller-Hinton agar, 10^4 CFU, 18 hours, 35° C.
Experimental: as §1

[4] = tested on: Enterobacter cloacae VGH 84-39; conditions: VGH8439, Mueller-Hinton agar, 10^4 CFU, 18 hours, 35° C.
Experimental: as §1

[5] = tested on: Escherichia coli ATCC 25922; conditions: Escherichia coli, ATCC25922, 18 h, Table I; Escherichia coli ATCC 25922; Mueller-Hinton agar, 10^4 CFU, 18 hours, 35° C.; read-out: MIC
Experimental: as §1

[6] = tested on: Escherichia coli CMC 84-50; conditions: CMC8450, Mueller-Hinton agar, 10^4 CFU, 18 hours, 35° C.
Experimental: as §1

[7] = tested on: Escherichia coli MOR 84-20; conditions: MOR8420, Mueller-Hinton agar, 10^4 CFU, 18 hours, 35° C.
Experimental: as §1

[8] = tested on: Escherichia coli VGH 84-19; conditions: VGH8419, Mueller-Hinton agar, 10^4 CFU, 18 hours, 35° C.
Experimental: as §1

[9] = tested on: Klebsiella neumoniae CMC 84-31; conditions: CMC8431, Mueller-Hinton agar, 10^4 CFU, 18 hours, 35° C.
Experimental: as §1

[10] = tested on: Klebsiella neumoniae IO 83-5; conditions: IO835, Mueller-Hinton agar, 10^4 CFU, 18 hours, 35° C.
Experimental: as §1

[11] = tested on: Klebsiella neumoniae MOR 84-24; conditions: MOR8424, Mueller-Hinton agar, 10^4 CFU, 18 hours, 35° C.
Experimental: as §1

[12] = tested on: Moranella morganii CMC 84-38; conditions: Mueller-Hinton agar, 10^4 CFU, 18 hours, 35° C.
Experimental: as §1

[13] = tested on: Moranella morganii VGH 84-12; conditions: Mueller-Hinton agar, 10^4 CFU, 18 hours, 35° C.
Experimental: as §1

[14] = tested on: Morganella morganii MOR 84-45; conditions: MOR8445, Mueller-Hinton agar, 10^4 CFU, 18 hours, 35° C.
Experimental: as §1

[15] = tested on: Proteus rettgeri IO 83-21; conditions: Providencia rettgeri, IO8321, Mueller-Hinton agar, 10^4 CFU, 18 hours, 35° C.
Experimental: as §1

[16] = tested on: Providencia stuartii CMC 83-3; conditions: CMC833, Mueller-Hinton agar, 10^4 CFU, 18 hours, 35° C.
Experimental: as §1

[17] = tested on: Pseudomonas aeruginosa CMC 83-20; conditions: CMC8320, Mueller-Hinton agar, 10^4 CFU, 18 hours, 35° C.
Experimental: as §1

[18] = tested on: Pseudomonas aeruginosa VGH 84-16; conditions: VGH8416, Mueller-Hinton agar, 10^4 CFU, 18 hours, 35° C.
Experimental: as §1

[19] = tested on: Pseudomonas aeruginosa VGH 84-3; conditions: VGH843, Mueller-Hinton agar, 10^4 CFU, 18 hours, 35° C.
Experimental: as §1

[20] = tested on: Serratia marcescens CMC 83-74; conditions: CMC8374, Mueller-Hinton agar, 10^4 CFU, 18 hours, 35° C.
Experimental: as §1

[21] = tested on: Serratia marcescens IO 83-63; conditions: IO8363, Mueller-Hinton agar, 10^4 CFU, 18 hours, 35° C.
Experimental: as §1

[22] = tested on: Serratia marcescens MOR 84-41; conditions: MOR8441, Mueller-Hinton agar, 10^4 CFU, 18 hours, 35° C.
Experimental: as §1

[23] = tested on: Staphylococcus aureus ATCC 29213; conditions: Staphylococcus aureus, ATCC29213, 18 h, Table I, Mueller-Hinton agar, 10^4 CFU, 18 hours, 35° C., read-out: MIC
Experimental: as §1

[24] = tested on: Staphylococcus aureus CMC 83-131; conditions: CMC83131, Mueller-Hinton agar, 10^4 CFU, 18 hours, 35° C.
Experimental: as §1

[25] = tested on: Staphylococcus aureus K 82-26; conditions: K8226, Mueller-Hinton agar, 10^4 CFU, 18 hours, 35° C.
Experimental: as §1

[26] = tested on: Staphylococcus aureus VGH 84-47; conditions: VGH8447, Mueller-Hinton agar, 10^4 CFU, 18 hours, 35° C.
Experimental: as §1

[27] = tested on: Staphylococcus faecalis CMC 83-120; conditions: CMC83120, Mueller-Hinton agar, 10^4 CFU, 18 hours, 35° C.
Experimental: as §1

[28] = tested on: Staphylococcus faecalis VGH 84-69; conditions: VGH8469, Mueller-Hinton agar, 10^4 CFU, 18 hours, 35° C.
Experimental: as §1

[29] = tested on: Streptococcus faecalis UCI 85-30; conditions: Enterococcus faecalis, UCI8530, Mueller-Hinton agar, 10^4 CFU, 18 hours, 35° C.
Experimental: as §1

## N[C@H]1CCCC[C@H]1Nc1cc2c(cc1F)c(=O)c(C(=O)O)cn2C1CC1 (relative stereo) [Example 1, Cis-7-[(2-Aminocyclohexyl)amino]1-cyclopropyl-6-fluoro-1,4-dihydro-4-oxo-3-quinolinecarboxylic acid]
[1]
  MIC: 0.25 µg/mL (≈ 0.696 µM)
[2]
  MIC: 0.5 µg/mL (≈ 1.39 µM)
[3]
  MIC: 1 µg/mL (≈ 2.78 µM)
[4]
  MIC: 0.5 µg/mL (≈ 1.39 µM)
[5]
  MIC: 0.25 µg/mL (≈ 0.696 µM)
[6]
  MIC: 1 µg/mL (≈ 2.78 µM)
[7]
  MIC: 0.25 µg/mL (≈ 0.696 µM)
[8]
  MIC: 0.25 µg/mL (≈ 0.696 µM)
[9]
  MIC: 1 µg/mL (≈ 2.78 µM)
[10]
  MIC: 1 µg/mL (≈ 2.78 µM)
[11]
  MIC: 1 µg/mL (≈ 2.78 µM)
[12]
  MIC: 1 µg/mL (≈ 2.78 µM)
[13]
  MIC: 1 µg/mL (≈ 2.78 µM)
[14]
  MIC: 0.5 µg/mL (≈ 1.39 µM)
[15]
  MIC: 2 µg/mL (≈ 5.56 µM)
[16]
  MIC: > 16 µg/mL
[17]
  MIC: 4 µg/mL (≈ 11.1 µM)
[18]
  MIC: 8 µg/mL (≈ 22.3 µM)
[19]
  MIC: > 16 µg/mL
[20]
  MIC: 16 µg/mL (≈ 44.5 µM)
[21]
  MIC: 1 µg/mL (≈ 2.78 µM)
[22]
  MIC: 0.5 µg/mL (≈ 1.39 µM)
[23]
  MIC: 2 µg/mL (≈ 5.56 µM)
[24]
  MIC: 4 µg/mL (≈ 11.1 µM)
[25]
  MIC: 2 µg/mL (≈ 5.56 µM)
[26]
  MIC: 2 µg/mL (≈ 5.56 µM)
[27]
  MIC: 4 µg/mL (≈ 11.1 µM)
[28]
  MIC: 4 µg/mL (≈ 11.1 µM)
[29]
  MIC: 4 µg/mL (≈ 11.1 µM)

## N[C@H]1CCC[C@H]1Nc1cc2c(cc1F)c(=O)c(C(=O)O)cn2C1CC1 (relative stereo) [Example 2, Cis-7-[(2-Aminocyclopentyl)amino]-1-cyclopropyl-6-fluoro-1,4-dihydro-4-oxo-3-quinolinecarboxylic acid]
[1]
  MIC: 0.5 µg/mL (≈ 1.45 µM)
[2]
  MIC: 1 µg/mL (≈ 2.9 µM)
[3]
  MIC: 2 µg/mL (≈ 5.79 µM)
[4]
  MIC: 1 µg/mL (≈ 2.9 µM)
[5]
  MIC: 0.5 µg/mL (≈ 1.45 µM)
[6]
  MIC: 0.5 µg/mL (≈ 1.45 µM)
[7]
  MIC: 0.5 µg/mL (≈ 1.45 µM)
[8]
  MIC: 1 µg/mL (≈ 2.9 µM)
[9]
  MIC: 2 µg/mL (≈ 5.79 µM)
[10]
  MIC: 2 µg/mL (≈ 5.79 µM)
[11]
  MIC: 1 µg/mL (≈ 2.9 µM)
[12]
  MIC: 1 µg/mL (≈ 2.9 µM)
[13]
  MIC: 4 µg/mL (≈ 11.6 µM)
[14]
  MIC: 2 µg/mL (≈ 5.79 µM)
[15]
  MIC: 4 µg/mL (≈ 11.6 µM)
[16]
  MIC: > 16 µg/mL
[17]
  MIC: 8 µg/mL (≈ 23.2 µM)
[18]
  MIC: 16 µg/mL (≈ 46.3 µM)
[19]
  MIC: > 16 µg/mL
[20]
  MIC: > 16 µg/mL
[21]
  MIC: 2 µg/mL (≈ 5.79 µM)
[22]
  MIC: 1 µg/mL (≈ 2.9 µM)
[23]
  MIC: 4 µg/mL (≈ 11.6 µM)
[24]
  MIC: > 16 µg/mL
[25]
  MIC: 4 µg/mL (≈ 11.6 µM)
[26]
  MIC: 4 µg/mL (≈ 11.6 µM)
[27]
  MIC: > 16 µg/mL
[28]
  MIC: > 16 µg/mL
[29]
  MIC: > 16 µg/mL
